The target in data set [1] is NAD-dependent histone deacetylase SIR2 (Saccharomyces cerevisiae S288c) (UniProt P06700). Kind of data set: Inhibition of Ura3 gene expressing yeast NAD-dependent HDAC activity of Sir2 assessed as growth inhibition at 50 uM after 24 to 48 hrs by reporter silencing assay in presence of 5-fluoro orotic acid.
Data set [2] has the same target. The data set can be described thus: Inhibition of Ura3 gene expressing yeast NAD-dependent HDAC activity of Sir2 assessed as growth inhibition after 24 to 48 hrs by reporter silencing assay in presence of 5-fluoro orotic acid.
Data set [3] has as its target NAD-dependent histone deacetylase SIR2 (Saccharomyces cerevisiae S288c, UniProt P06700). Kind of data set: Inhibition of Ura3 gene expressing yeast NAD-dependent HDAC activity of Sir2 assessed as growth inhibition after 24 to 48 hrs by reporter silencing assay in absence of 5-fluoro orotic acid.

Chain of NAD-dependent histone deacetylase SIR2 (Saccharomyces cerevisiae S288c) (P06700 whole entry): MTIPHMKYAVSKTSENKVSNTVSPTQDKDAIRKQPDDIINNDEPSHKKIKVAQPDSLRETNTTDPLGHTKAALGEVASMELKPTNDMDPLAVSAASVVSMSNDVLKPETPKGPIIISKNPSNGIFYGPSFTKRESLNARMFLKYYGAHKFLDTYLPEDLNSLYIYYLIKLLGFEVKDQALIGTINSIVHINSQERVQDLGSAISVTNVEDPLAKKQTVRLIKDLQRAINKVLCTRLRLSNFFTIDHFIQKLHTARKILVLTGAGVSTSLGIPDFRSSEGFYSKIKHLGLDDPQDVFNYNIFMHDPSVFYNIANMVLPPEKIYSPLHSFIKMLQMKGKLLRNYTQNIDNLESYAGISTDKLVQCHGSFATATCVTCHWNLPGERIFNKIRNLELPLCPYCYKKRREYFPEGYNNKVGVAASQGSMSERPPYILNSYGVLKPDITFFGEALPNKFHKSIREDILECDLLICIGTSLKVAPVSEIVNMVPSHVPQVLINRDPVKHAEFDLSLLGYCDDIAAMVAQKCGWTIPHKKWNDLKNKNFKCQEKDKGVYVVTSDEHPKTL
Chain of NAD-dependent histone deacetylase SIR2 (P06700 whole entry): as above

With `CCCCCc1cc2cccnc2n1S(=O)(=O)c1ccccc1`, the inhibition in data set [1] was found to be 10%. Take `CS(=O)(=O)n1c(-c2ccccc2)cc2cccnc21`: the inhibition result in data set [2] was “Dose-dependent effect”; in data set [1], 40%. For the same compound, in data set [3], the Activity result is “Non-toxic”.

On to `O=S(=O)(c1ccccc1)n1c(CO)cc2cccnc21`, for which the Activity result in data set [3] is recorded as “Non-toxic”. For the compound `O=S(=O)(c1ccccc1)n1c(CCCCl)cc2cccnc21`, in data set [1], the inhibition came to 12%.

Take `CC(O)c1cc2cccnc2n1S(=O)(=O)c1ccccc1` (configuration not stated): the inhibition in data set [1] was 30%. Take `N#CCCCc1cc2cccnc2n1S(=O)(=O)c1ccccc1`: in data set [1], the inhibition came to 10%. On the same count and under the same terms, with `O=S(=O)(c1ccccc1)n1c(-c2ccccc2)cc2cccnc21` the figure was 37%; with `O=S(=O)(c1ccccc1)n1c(CCO)cc2cccnc21`, 15%. Take `CC(C)(C)c1cc2cccnc2n1S(=O)(=O)c1ccccc1`: the Activity entry in data set [3] is “Non-toxic”. The inhibition in data set [1] is 42%.

For orientation: inhibition means the relative decrease from the control value, in per cent.

The values are drawn from ChEMBL document CHEMBL3217517, “Alkynylation of N-(3-iodopyridin-2-yl)sulfonamide under Pd/CCu catalysis: a direct one pot synthesis of 7-azaindoles and their pharmacological evaluation as potential inhibitors of sirtuins” (Medchemcomm, 2011).
